Measured values taken from PubChem BioAssay AID1963872 (Molecular Pharmacology Branch, DTP, NCI, 2024).

System: KRAS patient-derived spheroids with HUVEC/MSC, viability
Assay: Anticancer human tumor 519858-162-T-J1-PDC patient-derived colon adenocarcinoma cell line growth inhibition [KRAS2]
Conditions: for IC50: curve of first compound; for viability, T/C: stronger effect = lower value
Method in brief: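 KRAS-mutant tumor cells were grown as spheroids with HUVEC endothelial cells and human MSCs as stroma. Targeted agents were tested alone and with KRAS pathway inhibitors. Doses started at or near clinical Cmax, or 10 microM, descending half-log.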

[1] = second compound 0.1 µM, first compound 0.0316 µM
[2] = second compound 0.316 µM, first compound 0.0316 µM
[3] = second compound 1 µM, first compound 0.0316 µM
[4] = second compound 3.16 µM, first compound 0.0316 µM
[5] = second compound 10 µM, first compound 0.0316 µM
[6] = second compound 0.1 µM, first compound 0.1 µM
[7] = second compound 0.1 µM, first compound 0.316 µM
[8] = second compound 0.1 µM, first compound 1 µM
[9] = second compound 0.1 µM, first compound 3.16 µM
[10] = second compound 0.1 µM, first compound 10 µM
[11] = second compound 0.316 µM, first compound 0.1 µM
[12] = second compound 0.316 µM, first compound 0.316 µM
[13] = second compound 0.316 µM, first compound 1 µM
[14] = second compound 0.316 µM, first compound 3.16 µM
[15] = second compound 0.316 µM, first compound 10 µM
[16] = second compound 1 µM, first compound 0.1 µM
[17] = second compound 1 µM, first compound 0.316 µM
[18] = second compound 1 µM, first compound 1 µM
[19] = second compound 1 µM, first compound 3.16 µM
[20] = second compound 1 µM, first compound 10 µM
[21] = second compound 3.16 µM, first compound 0.1 µM
[22] = second compound 3.16 µM, first compound 0.316 µM
[23] = second compound 3.16 µM, first compound 1 µM
[24] = second compound 3.16 µM, first compound 3.16 µM
[25] = second compound 3.16 µM, first compound 10 µM
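Further: compound exposure lasted seven days before readout.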
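Wherever viability, T/C is given: 100% = DMSO vehicle control viability.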

## CC(=O)Nc1cccc(-n2c(=O)n(C3CC3)c(=O)c3c(Nc4ccc(I)cc4F)n(C)c(=O)c(C)c32)c1 + C=CC(=O)N1CCN(c2nc(=O)n(-c3c(C)ccnc3C(C)C)c3nc(-c4c(O)cccc4F)c(F)cc23)C(C)C1
Second compound 0.1 µM
  IC50: 6.3 nM
Second compound 0.316 µM
  IC50: 5.48 nM
Second compound 1 µM
  IC50: 7.54 nM
Second compound 3.16 µM
  IC50: 7.41 nM
Second compound 10 µM
  IC50: 4.51 nM
Second compound 0.1 µM, first compound 0.0001 µM
  viability, T/C: 104%
Second compound 0.1 µM, first compound 0.000316 µM
  viability, T/C: 99.5%
Second compound 0.1 µM, first compound 0.001 µM
  viability, T/C: 66.3%
Second compound 0.1 µM, first compound 0.00316 µM
  viability, T/C: 83.8%
Second compound 0.1 µM, first compound 0.01 µM
  viability, T/C: 28.9%
[1]
  viability, T/C: 20%
Second compound 0.316 µM, first compound 0.0001 µM
  viability, T/C: 85.3%
Second compound 0.316 µM, first compound 0.000316 µM
  viability, T/C: 97.7%
Second compound 0.316 µM, first compound 0.001 µM
  viability, T/C: 93.4%
Second compound 0.316 µM, first compound 0.00316 µM
  viability, T/C: 59.4%
Second compound 0.316 µM, first compound 0.01 µM
  viability, T/C: 40.7%
[2]
  viability, T/C: 23.8%
Second compound 1 µM, first compound 0.0001 µM
  viability, T/C: 96.6%
Second compound 1 µM, first compound 0.000316 µM
  viability, T/C: 67.9%
Second compound 1 µM, first compound 0.001 µM
  viability, T/C: 79.7%
Second compound 1 µM, first compound 0.00316 µM
  viability, T/C: 74.9%
Second compound 1 µM, first compound 0.01 µM
  viability, T/C: 41.9%
[3]
  viability, T/C: 25.1%
Second compound 3.16 µM, first compound 0.0001 µM
  viability, T/C: 74.2%
Second compound 3.16 µM, first compound 0.000316 µM
  viability, T/C: 79%
Second compound 3.16 µM, first compound 0.001 µM
  viability, T/C: 76.3%
Second compound 3.16 µM, first compound 0.00316 µM
  viability, T/C: 102%
Second compound 3.16 µM, first compound 0.01 µM
  viability, T/C: 38.4%
[4]
  viability, T/C: 19.1%
Second compound 10 µM, first compound 0.0001 µM
  viability, T/C: 89.7%
Second compound 10 µM, first compound 0.000316 µM
  viability, T/C: 90.5%
Second compound 10 µM, first compound 0.001 µM
  viability, T/C: 107%
Second compound 10 µM, first compound 0.00316 µM
  viability, T/C: 61.5%
Second compound 10 µM, first compound 0.01 µM
  viability, T/C: 31%
[5]
  viability, T/C: 17.4%

## CC(C)NCC(C(=O)N1CCN(c2ncnc3c2C(C)CC3O)CC1)c1ccc(Cl)cc1 (stereo not given) + C=CC(=O)N1CCN(c2nc(OCC3CCCN3C)nc3c2CCN(c2cccc4cccc(C)c24)C3)CC1CC#N
Second compound 0.0316 µM
  IC50: > 10000 nM
Second compound 0.1 µM
  IC50: > 10000 nM
Second compound 0.316 µM
  IC50: > 10000 nM
Second compound 1 µM
  IC50: > 10000 nM
Second compound 3.16 µM
  IC50: 1930 nM
Second compound 0.0316 µM, first compound 0.0316 µM
  viability, T/C: 84.8%
Second compound 0.0316 µM, first compound 0.1 µM
  viability, T/C: 84.9%
Second compound 0.0316 µM, first compound 0.316 µM
  viability, T/C: 79.5%
Second compound 0.0316 µM, first compound 1 µM
  viability, T/C: 85.4%
Second compound 0.0316 µM, first compound 3.16 µM
  viability, T/C: 85.9%
Second compound 0.0316 µM, first compound 10 µM
  viability, T/C: 77.5%
[1]
  viability, T/C: 95.2%
[6]
  viability, T/C: 91.6%
[7]
  viability, T/C: 78.4%
[8]
  viability, T/C: 78%
[9]
  viability, T/C: 90.3%
[10]
  viability, T/C: 74.6%
[2]
  viability, T/C: 64.7%
[11]
  viability, T/C: 84.2%
[12]
  viability, T/C: 75.5%
[13]
  viability, T/C: 90%
[14]
  viability, T/C: 82.5%
[15]
  viability, T/C: 87%
[3]
  viability, T/C: 72%
[16]
  viability, T/C: 72.2%
[17]
  viability, T/C: 48.3%
[18]
  viability, T/C: 70.5%
[19]
  viability, T/C: 81.9%
[20]
  viability, T/C: 83.3%
[4]
  viability, T/C: 70.9%
[21]
  viability, T/C: 55.8%
[22]
  viability, T/C: 80.8%
[23]
  viability, T/C: 55.1%
[24]
  viability, T/C: 50.7%
[25]
  viability, T/C: 41.5%

## CC(C)NCC(C(=O)N1CCN(c2ncnc3c2C(C)CC3O)CC1)c1ccc(Cl)cc1 (stereo not given) + COc1cc2nc(C)nc(NC(C)c3cc(N)cc(C(F)(F)F)c3)c2cc1OC1CCOC1
Second compound 0.1 µM
  IC50: 10000 nM
Second compound 0.316 µM
  IC50: > 10000 nM
Second compound 1 µM
  IC50: > 10000 nM
Second compound 3.16 µM
  IC50: > 10000 nM
Second compound 10 µM
  IC50: > 10000 nM
[1]
  viability, T/C: 72.5%
[6]
  viability, T/C: 89.6%
[7]
  viability, T/C: 86.2%
[8]
  viability, T/C: 99.4%
[9]
  viability, T/C: 41.4%
[10]
  viability, T/C: 71%
[2]
  viability, T/C: 67.6%
[11]
  viability, T/C: 105%
[12]
  viability, T/C: 89.6%
[13]
  viability, T/C: 74.3%
[14]
  viability, T/C: 65.2%
[15]
  viability, T/C: 78.4%
[3]
  viability, T/C: 77.4%
[16]
  viability, T/C: 113%
[17]
  viability, T/C: 78.2%
[18]
  viability, T/C: 66%
[19]
  viability, T/C: 49.4%
[20]
  viability, T/C: 60.3%
[4]
  viability, T/C: 78%
[21]
  viability, T/C: 69.2%
[22]
  viability, T/C: 56.6%
[23]
  viability, T/C: 56.1%
[24]
  viability, T/C: 61.5%
[25]
  viability, T/C: 64.1%
[5]
  viability, T/C: 58.7%
Second compound 10 µM, first compound 0.1 µM
  viability, T/C: 62%
Second compound 10 µM, first compound 0.316 µM
  viability, T/C: 61.2%
Second compound 10 µM, first compound 1 µM
  viability, T/C: 52.3%
Second compound 10 µM, first compound 3.16 µM
  viability, T/C: 58.8%
Second compound 10 µM, first compound 10 µM
  viability, T/C: 72%
